pIC50: −log10 of the molar value.
What was measured:
[1] = target: T1, Histone deacetylase 8 (Homo sapiens, UniProt Q9BY41); assay: Inhibition of human recombinant HDAC8 using fluorogenic HDAC substrate class 2A preincubated for 30 mins followed by substrate addition and measured after 15 mins by fluorogenic assay
T1 sequence (Q9BY41 whole entry): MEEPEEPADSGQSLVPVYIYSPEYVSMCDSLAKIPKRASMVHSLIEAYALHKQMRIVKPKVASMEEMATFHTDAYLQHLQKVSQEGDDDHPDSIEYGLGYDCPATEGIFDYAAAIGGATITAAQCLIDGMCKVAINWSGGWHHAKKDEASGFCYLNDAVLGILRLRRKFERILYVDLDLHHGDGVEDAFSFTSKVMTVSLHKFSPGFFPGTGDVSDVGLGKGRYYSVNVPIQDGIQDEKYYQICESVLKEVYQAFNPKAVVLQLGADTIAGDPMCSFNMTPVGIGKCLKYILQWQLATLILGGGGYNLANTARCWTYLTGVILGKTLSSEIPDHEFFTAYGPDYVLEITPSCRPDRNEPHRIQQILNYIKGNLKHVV

[2] = tested on: Jurkat E6.1; assay: Cytotoxicity against human Jurkat E6.1 cells assessed as reduction in cell viability incubated for 72 hrs by MTT assay; format: functional, cell-based; conditions: Jurkat E6.1, 72 h
[3] = target: T2, Histone deacetylase 8 (Homo sapiens) (UniProt Q9BY41); assay: Inhibition of His-tagged recombinant HDAC8 (unknown origin) at 10 uM using Boc-Lys(triflouroacetyl)-AMC as fluorogenic substrate pre-incubated for 30 mins followed by substrate addition and measured after 30 mins by fluorescence based analysis relative to control; conditions: time 60.0 min
T2 sequence (whole entry): T1 sequence (Q9BY41 whole entry)

[4] = tested on: Jurkat; assay: cells; format: functional; conditions: Homo sapiens
Description: Growth inhibition of human Jurkat cells

[5] = Inhibition of HDAC6 (unknown origin) assessed as release of fluorogenic AMC pre-incubated for 15 mins followed by addition of trypsin and substrate measured after 60 mins microplate reader analysis; parameters: species or system Homo sapiens
[6] = target: Histone deacetylase 1 (Homo sapiens, UniProt Q13547); assay: Inhibition of HDAC1 (unknown origin) using Ac-Leu-Gly-Lys(Ac)-AMC as substrate pre-incubated for 30 mins followed by substrate addition and measured after 30 mins by fluorescence based analysis
Sequence of Histone deacetylase 1 (Q13547 whole entry): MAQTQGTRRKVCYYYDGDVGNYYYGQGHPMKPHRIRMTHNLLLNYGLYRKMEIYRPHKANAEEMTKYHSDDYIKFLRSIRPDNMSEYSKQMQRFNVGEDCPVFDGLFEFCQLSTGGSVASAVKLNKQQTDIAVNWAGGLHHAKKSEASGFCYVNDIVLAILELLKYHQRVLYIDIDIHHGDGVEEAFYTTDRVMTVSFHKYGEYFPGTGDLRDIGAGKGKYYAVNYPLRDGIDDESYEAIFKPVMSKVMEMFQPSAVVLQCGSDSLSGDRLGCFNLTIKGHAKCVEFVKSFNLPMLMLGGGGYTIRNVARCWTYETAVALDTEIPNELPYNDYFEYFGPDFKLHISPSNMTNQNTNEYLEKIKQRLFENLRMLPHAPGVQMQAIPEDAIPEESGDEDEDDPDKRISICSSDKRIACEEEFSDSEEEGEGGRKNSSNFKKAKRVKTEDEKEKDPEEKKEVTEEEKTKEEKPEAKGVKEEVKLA

[7] = target: Histone deacetylase 3 (Homo sapiens, UniProt O15379); assay: Inhibition of HDAC3 (unknown origin) assessed as release of fluorogenic AMC pre-incubated for 15 mins followed by addition of trypsin and substrate measured after 60 mins microplate reader analysis
Sequence of Histone deacetylase 3 (O15379 whole entry): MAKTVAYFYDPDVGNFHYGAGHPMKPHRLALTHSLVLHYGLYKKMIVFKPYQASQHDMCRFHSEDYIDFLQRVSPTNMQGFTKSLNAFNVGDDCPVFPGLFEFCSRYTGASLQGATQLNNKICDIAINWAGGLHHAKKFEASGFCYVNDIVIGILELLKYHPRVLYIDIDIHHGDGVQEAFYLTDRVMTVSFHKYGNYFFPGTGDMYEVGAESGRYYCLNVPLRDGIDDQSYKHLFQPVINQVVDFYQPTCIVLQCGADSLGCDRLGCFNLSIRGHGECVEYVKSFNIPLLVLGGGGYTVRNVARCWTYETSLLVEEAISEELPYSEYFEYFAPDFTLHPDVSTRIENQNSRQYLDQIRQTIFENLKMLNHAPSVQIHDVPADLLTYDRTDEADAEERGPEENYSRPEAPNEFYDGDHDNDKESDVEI

[8] = target: T3, Polyamine deacetylase HDAC10 (Homo sapiens, UniProt Q969S8); assay: Inhibition of HDAC10 (unknown origin) assessed as release of fluorogenic AMC pre-incubated for 15 mins followed by addition of trypsin and substrate measured after 60 mins microplate reader analysis
T3 sequence (Q969S8 whole entry): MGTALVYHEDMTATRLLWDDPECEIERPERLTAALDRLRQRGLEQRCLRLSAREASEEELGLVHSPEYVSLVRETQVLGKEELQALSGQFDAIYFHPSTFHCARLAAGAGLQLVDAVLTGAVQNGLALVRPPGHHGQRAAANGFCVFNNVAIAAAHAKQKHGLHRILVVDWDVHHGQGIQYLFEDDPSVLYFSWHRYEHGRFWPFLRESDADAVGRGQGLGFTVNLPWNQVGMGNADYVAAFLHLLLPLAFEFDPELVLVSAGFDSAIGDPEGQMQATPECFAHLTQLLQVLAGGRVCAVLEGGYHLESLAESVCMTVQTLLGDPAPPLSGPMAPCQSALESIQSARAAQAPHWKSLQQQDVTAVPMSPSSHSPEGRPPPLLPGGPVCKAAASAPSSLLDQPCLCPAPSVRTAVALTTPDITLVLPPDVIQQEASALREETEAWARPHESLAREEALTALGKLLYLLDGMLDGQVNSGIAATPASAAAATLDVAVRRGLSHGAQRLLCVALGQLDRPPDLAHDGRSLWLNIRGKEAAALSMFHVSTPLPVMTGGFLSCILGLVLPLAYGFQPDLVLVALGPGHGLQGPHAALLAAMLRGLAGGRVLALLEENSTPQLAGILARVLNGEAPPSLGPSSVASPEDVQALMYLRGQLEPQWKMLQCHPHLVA

[9] = target: Histone deacetylase 2 (Homo sapiens, UniProt Q92769); assay: Inhibition of HDAC2 (unknown origin) assessed as release of fluorogenic AMC pre-incubated for 15 mins followed by addition of trypsin and substrate measured after 60 mins microplate reader analysis
Sequence of Histone deacetylase 2 (Q92769 whole entry): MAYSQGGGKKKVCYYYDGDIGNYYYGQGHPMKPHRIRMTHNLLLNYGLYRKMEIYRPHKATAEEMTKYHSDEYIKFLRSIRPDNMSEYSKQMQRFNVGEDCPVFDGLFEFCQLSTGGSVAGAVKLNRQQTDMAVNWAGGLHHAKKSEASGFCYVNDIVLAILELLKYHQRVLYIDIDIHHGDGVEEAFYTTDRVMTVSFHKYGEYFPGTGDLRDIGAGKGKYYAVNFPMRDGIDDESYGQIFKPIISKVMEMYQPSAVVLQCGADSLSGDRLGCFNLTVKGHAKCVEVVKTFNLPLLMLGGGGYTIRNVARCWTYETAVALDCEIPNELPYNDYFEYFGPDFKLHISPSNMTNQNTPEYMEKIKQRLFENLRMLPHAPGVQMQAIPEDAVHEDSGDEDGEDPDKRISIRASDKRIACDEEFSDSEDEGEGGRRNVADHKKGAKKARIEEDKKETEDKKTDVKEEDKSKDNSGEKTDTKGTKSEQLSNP

[10] = target: T1, Histone deacetylase 8; assay: Inhibition of human recombinant HDAC8 using AMC-K(Ac)GL as substrate by fluorescence based assay
[11] = target: Histone deacetylase; assay: Inhibition of HDAC (unknown origin) using Fluoro-Substrate Peptide as substrate by fluorescence assay; format: protein assay, Homo sapiens
[12] = tested on: MOLT-4; assay: Cytotoxicity against human MOLT-4 cells assessed as reduction in cell viability; format: functional, cell-based
[13] = tested on: U-937; assay: Cytotoxicity against human U-937 cells assessed as reduction in cell viability; format: functional, cell-based
[14] = tested on: Jurkat E6.1; assay: Cytotoxicity against human Jurkat E6.1 cells assessed as reduction in cell growth measured after 48 hrs by MTT assay; format: functional, cell-based; conditions: Jurkat E6.1, 48 h
[15] = target: T1, Histone deacetylase 8; assay: Inhibition of HDAC8 (unknown origin) by fluorescence based assay
[16] = tested on: Jurkat E6.1; assay: Cytotoxicity against human Jurkat E6.1 cells assessed as reduction in cell viability; format: functional, cell-based
[17] = target: 72 kDa type IV collagenase (Homo sapiens, UniProt P08253); assay: Inhibition of MMP-2 (unknown origin)
Sequence of 72 kDa type IV collagenase (P08253 whole entry): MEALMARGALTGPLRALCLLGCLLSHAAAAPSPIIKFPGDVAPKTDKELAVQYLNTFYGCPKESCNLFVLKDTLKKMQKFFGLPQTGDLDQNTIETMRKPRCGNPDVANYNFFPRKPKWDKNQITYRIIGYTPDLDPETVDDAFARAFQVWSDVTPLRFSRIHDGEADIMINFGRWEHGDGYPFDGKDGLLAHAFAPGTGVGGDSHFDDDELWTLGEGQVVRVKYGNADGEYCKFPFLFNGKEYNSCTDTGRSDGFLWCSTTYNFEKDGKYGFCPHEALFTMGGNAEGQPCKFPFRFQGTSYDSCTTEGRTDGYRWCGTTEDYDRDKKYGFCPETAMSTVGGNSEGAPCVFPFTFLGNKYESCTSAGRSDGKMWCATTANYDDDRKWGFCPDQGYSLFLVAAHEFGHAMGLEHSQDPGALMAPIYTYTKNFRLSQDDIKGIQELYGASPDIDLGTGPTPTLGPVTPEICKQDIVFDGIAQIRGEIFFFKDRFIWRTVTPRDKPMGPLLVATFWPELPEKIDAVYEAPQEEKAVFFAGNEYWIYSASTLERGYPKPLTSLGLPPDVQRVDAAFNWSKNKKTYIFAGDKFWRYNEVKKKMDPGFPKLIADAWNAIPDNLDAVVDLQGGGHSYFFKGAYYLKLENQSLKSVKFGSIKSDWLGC

[18] = target: Matrix metalloproteinase-9 (Homo sapiens, UniProt P14780); assay: Inhibition of MMP-9 (unknown origin)
Sequence of Matrix metalloproteinase-9 (P14780 whole entry): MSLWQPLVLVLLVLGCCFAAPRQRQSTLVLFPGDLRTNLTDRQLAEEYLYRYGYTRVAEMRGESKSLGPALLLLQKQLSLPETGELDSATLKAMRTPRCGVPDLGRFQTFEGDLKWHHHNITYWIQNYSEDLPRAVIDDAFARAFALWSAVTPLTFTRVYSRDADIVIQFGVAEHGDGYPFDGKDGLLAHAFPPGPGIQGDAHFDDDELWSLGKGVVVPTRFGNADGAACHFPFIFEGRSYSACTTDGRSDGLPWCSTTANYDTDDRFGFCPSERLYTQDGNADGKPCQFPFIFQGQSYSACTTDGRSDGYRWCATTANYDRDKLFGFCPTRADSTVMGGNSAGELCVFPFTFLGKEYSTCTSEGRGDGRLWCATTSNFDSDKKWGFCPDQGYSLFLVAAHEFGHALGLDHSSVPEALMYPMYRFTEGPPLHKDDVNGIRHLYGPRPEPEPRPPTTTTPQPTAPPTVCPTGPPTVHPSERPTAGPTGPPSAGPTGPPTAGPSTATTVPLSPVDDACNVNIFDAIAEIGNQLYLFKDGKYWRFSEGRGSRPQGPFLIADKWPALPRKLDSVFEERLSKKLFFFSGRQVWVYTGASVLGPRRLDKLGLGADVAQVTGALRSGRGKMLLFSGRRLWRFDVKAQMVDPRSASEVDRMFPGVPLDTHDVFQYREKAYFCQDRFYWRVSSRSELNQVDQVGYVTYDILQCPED

[19] = target: T1, Histone deacetylase 8; assay: Inhibition of HDAC8 (unknown origin) using as Fluor-de-lys substrate by fluorescence based analysis
[20] = target: Matrix metalloproteinase-14 (Homo sapiens, UniProt P50281); assay: Inhibition of MMP-14 (unknown origin)
[21] = target: Macrophage metalloelastase (Homo sapiens, UniProt P39900); assay: Inhibition of MMP-12 (unknown origin)
Sequence of Macrophage metalloelastase (P39900 whole entry): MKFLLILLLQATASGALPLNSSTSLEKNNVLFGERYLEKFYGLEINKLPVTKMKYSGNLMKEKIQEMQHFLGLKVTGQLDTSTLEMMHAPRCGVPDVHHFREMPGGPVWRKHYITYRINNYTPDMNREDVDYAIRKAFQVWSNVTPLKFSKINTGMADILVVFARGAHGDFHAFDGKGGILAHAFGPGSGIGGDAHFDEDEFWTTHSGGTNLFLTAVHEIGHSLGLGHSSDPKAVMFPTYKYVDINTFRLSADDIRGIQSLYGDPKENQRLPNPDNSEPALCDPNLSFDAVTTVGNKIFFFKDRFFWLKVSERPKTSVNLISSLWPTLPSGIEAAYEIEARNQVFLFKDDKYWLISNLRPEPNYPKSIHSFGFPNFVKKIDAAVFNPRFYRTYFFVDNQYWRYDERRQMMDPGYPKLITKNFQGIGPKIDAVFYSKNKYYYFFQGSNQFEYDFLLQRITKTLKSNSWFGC

[22] = target: Neutrophil collagenase (Homo sapiens, UniProt P22894); assay: Inhibition of MMP-8 (unknown origin)
Sequence of Neutrophil collagenase (P22894 whole entry): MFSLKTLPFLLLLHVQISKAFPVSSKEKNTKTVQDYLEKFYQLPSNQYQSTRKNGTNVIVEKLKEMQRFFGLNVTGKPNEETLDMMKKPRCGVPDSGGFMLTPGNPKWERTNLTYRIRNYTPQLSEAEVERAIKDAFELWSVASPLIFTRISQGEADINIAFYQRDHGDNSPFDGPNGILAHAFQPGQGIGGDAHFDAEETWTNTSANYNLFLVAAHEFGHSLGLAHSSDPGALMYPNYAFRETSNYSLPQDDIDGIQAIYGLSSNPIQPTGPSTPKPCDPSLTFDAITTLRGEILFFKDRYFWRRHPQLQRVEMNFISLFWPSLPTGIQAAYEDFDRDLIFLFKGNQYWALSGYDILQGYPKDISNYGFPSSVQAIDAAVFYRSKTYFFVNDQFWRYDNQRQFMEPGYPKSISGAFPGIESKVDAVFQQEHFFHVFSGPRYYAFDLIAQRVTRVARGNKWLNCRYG

[23] = tested on: MT4; assay: Cytotoxicity against human MT4 cells assessed as inhibition of cell growth incubated for 72 hrs by CCK-8 assay; format: functional
[24] = tested on: Jurkat; assay: Antiproliferative activity against human Jurkat cells assessed as cell growth inhibition measured after 72 hrs by CCK-8 assay; format: functional
[25] = tested on: HH; assay: Antiproliferative activity against human HH cells assessed as cell growth inhibition measured after 72 hrs by CCK-8 assay; format: functional
[26] = tested on: HuT78; assay: Anti-proliferative activity against human HuT78 cells assessed as growth inhibition incubated for 72 hrs by alamar blue staining based fluorometric assay; format: functional
[27] = tested on: Jurkat; assay: Cytotoxicity against human Jurkat cells assessed as reduction in cell viability incubated for 24 hrs by CellTiter-Glo luminescent cell viability assay; format: functional

**Q.** With `CSCC[C@@H]1NCC(=O)NC1=O` as the compound, how does the pIC50 [1] read?
**A.** Its pIC50 is 7.05.

**Q.** With `O=C(CC[C@H](NC(=O)Cc1ccc(Cl)cc1Cl)C(=O)Nc1ccccc1)NO` as the compound, how does the pIC50 [2] read?
**A.** Its pIC50 is greater than 4.30.

**Q.** With `O=C1CN[C@H](Cc2ccccc2)C(=O)N1` as the compound, how does the pIC50 [1] read?
**A.** The pIC50 was 7.67.

**Q.** Which inhibition [3] does the source give for `CC(C)C[C@H](NC(=O)[C@@H](O)[C@H](N)Cc1ccccc1)C(=O)NCCOCCOCCNC(=O)c1cccc(C(=O)NO)c1` here?
**A.** The inhibition was 64%.

**Q.** With `CCCCCNC(=O)[C@H](CCC(=O)NO)NC(=O)Cc1ccccc1` as the compound, how does the pIC50 [2] read?
**A.** The pIC50 was greater than 4.30.

**Q.** For `CC(C)C[C@H](NC(=O)[C@@H](O)[C@H](N)Cc1ccccc1)C(=O)NCCOCCOCC(=O)Nc1cccc(C(=O)NO)c1`, which inhibition [3] is on record?
**A.** Its inhibition is 71%.

**Q.** For `COc1ccc(Cn2ccc3ccc(C(=O)NO)cc32)cc1`, which GI50 [4] is on record?
**A.** The GI50 was 2.4 µM.

**Q.** What about the pIC50 [5] of the same compound?
**A.** The pIC50 was 5.54.

**Q.** With `O=C(NO)c1ccc(-c2cccc3ccccc23)cc1` as the compound, how does the pIC50 [6] read?
**A.** The pIC50 was less than 4.00.

**Q.** And the pIC50 [5]?
**A.** The pIC50 was 4.26.

**Q.** With `COc1ccc(/C=C/C(=O)NO)c(-c2ccc(Br)cc2)c1` as the compound, how does the pIC50 [7] read?
**A.** Its pIC50 is 5.32.

**Q.** What about the pIC50 [8] of the same compound?
**A.** Its pIC50 is less than 4.70.

**Q.** What about the pIC50 [9] of the same compound?
**A.** The pIC50 was less than 4.70.

**Q.** What about the pIC50 [6] of the same compound?
**A.** The pIC50 was 5.35.

**Q.** What about the pIC50 [5] of the same compound?
**A.** The pIC50 was less than 4.70.

**Q.** With `O=C(NO)c1cccc(-c2nc(CSc3ccccc3)no2)c1` as the compound, how does the pIC50 [10] read?
**A.** Its pIC50 is 6.92.

**Q.** With `CCCCCNC(=O)[C@H](CCC(=O)NO)NC(=O)Cc1ccc(Br)cc1` as the compound, how does the pIC50 [2] read?
**A.** The pIC50 was less than 4.30.

**Q.** With `CSCC[C@H]1NCC(=O)NC1=O` as the compound, how does the pIC50 [1] read?
**A.** The pIC50 was 7.10.

**Q.** With `O=C(O)CC[C@H](NC(=O)Cc1ccc(Br)cc1)C(=O)NCc1ccc(F)cc1` as the compound, how does the IC50 [11] read?
**A.** The IC50 was greater than 10 µM.

**Q.** What about the pIC50 [12] of the same compound?
**A.** The pIC50 was less than 4.46.

**Q.** What about the pIC50 [13] of the same compound?
**A.** The pIC50 was less than 4.46.

**Q.** What about the pIC50 [14] of the same compound?
**A.** The pIC50 was 5.79.

**Q.** And the pIC50 [15]?
**A.** The pIC50 was no less than 5.00.

**Q.** And the pIC50 [16]?
**A.** The pIC50 was greater than 4.46.

**Q.** Which results are given for `O=C(O)CC[C@H](NC(=O)Cc1ccc(Br)cc1)C(=O)NCc1ccc([N+](=O)[O-])cc1`?
**A.** IC50 [11]: > 10 µM; pIC50 [12]: ≥ 4.46; pIC50 [13]: ≥ 4.46; pIC50 [17]: 5.19; pIC50 [18]: 5.32; pIC50 [19]: 5.54; pIC50 [20]: 4.25; pIC50 [21]: 3.86; pIC50 [15]: ≥ 5.00; pIC50 [22]: 3.69; pIC50 [16]: ≥ 4.46

**Q.** With `CCCCCCNC(=O)[C@H](CCC(=O)NO)NC(=O)Cc1ccccc1` as the compound, how does the pIC50 [2] read?
**A.** The pIC50 was greater than 4.30.

**Q.** With `O=C1CN[C@@H](Cc2cc3ccccc3[nH]2)C(=O)N1` as the compound, how does the pIC50 [1] read?
**A.** Its pIC50 is 7.97.

**Q.** With `CC(C)CNC(=O)[C@H](CCC(=O)NO)NC(=O)Cc1ccccc1F` as the compound, how does the pIC50 [2] read?
**A.** The pIC50 was less than 4.30.

**Q.** Which GI50 [23] does the source give for `O=C(NO)c1cccc(-c2cn(CSc3ccccc3)nn2)c1` here?
**A.** The GI50 was 22 µM.

**Q.** What about the GI50 [24] of the same compound?
**A.** Its GI50 is 2.8 µM.

**Q.** And the GI50 [25]?
**A.** The GI50 was 21 µM.

**Q.** And the pIC50 [5]?
**A.** The pIC50 was 5.62.

**Q.** And the GI50 [26]?
**A.** Its GI50 is 32 µM.

**Q.** For `CCC(=O)CCCCC[C@@H]1NC(=O)[C@H]2CCCCN2C(=O)[C@H]([C@@H](C)CC)NC(=O)[C@H](Cc2cn(OC)c3ccccc23)NC1=O` [APICIDIN], which CC50 [27] is on record?
**A.** The CC50 was 10 µM.

**Q.** With `O=C(O)CC[C@H](NC(=O)Cc1ccc(Br)cc1)C(=O)NCc1ccc(Cl)cc1` as the compound, how does the IC50 [11] read?
**A.** Its IC50 is greater than 10 µM.

**Q.** What about the pIC50 [12] of the same compound?
**A.** Its pIC50 is greater than 4.46.

**Q.** And the pIC50 [13]?
**A.** Its pIC50 is less than 4.46.

**Q.** What about the pIC50 [15] of the same compound?
**A.** The pIC50 was no less than 5.00.

**Q.** And the pIC50 [16]?
**A.** Its pIC50 is greater than 4.46.

**Q.** With `CCCCCNC(=O)[C@H](CCC(=O)NO)NC(=O)Cc1ccc(Cl)cc1Cl` as the compound, how does the pIC50 [2] read?
**A.** The pIC50 was greater than 4.30.
